Source: patent US12291499B2, “Deuterated tryptamine derivatives and methods of use” (priority 2020, dated 2025)

How the values were obtained:
[1] = tested on: rat liver microsomes (RLM); assay: Metabolic stability in rat liver microsomes (RLM); settings: for RLM, %, class symbol (metabolized or not) / RLM, % (half-life as % vs. the related nondeuterated compound): RLM assay; for RLM, %, class symbol (metabolized or not): last time point 120 min; for RLM, % (half-life as % vs. the related nondeuterated compound): values in square brackets are within 10% (assay's accuracy), no deuteration effect
[2] = target: T1, hrMAO-A (Homo sapiens, UniProt P21397); assay: Metabolic stability in the presence of hrMAO-A; format: in vitro ADME; settings: for MAO, %, class symbol (metabolized or not) / MAO, % (half-life as % vs. the related nondeuterated compound): MAO-A assay; for MAO, %, class symbol (metabolized or not): last time point 120 min; for MAO, % (half-life as % vs. the related nondeuterated compound): values in square brackets are within 10% (assay's accuracy), no deuteration effect
T1 construct: purchased XenoTech Lot #8213001
T1 sequence (P21397 1-527): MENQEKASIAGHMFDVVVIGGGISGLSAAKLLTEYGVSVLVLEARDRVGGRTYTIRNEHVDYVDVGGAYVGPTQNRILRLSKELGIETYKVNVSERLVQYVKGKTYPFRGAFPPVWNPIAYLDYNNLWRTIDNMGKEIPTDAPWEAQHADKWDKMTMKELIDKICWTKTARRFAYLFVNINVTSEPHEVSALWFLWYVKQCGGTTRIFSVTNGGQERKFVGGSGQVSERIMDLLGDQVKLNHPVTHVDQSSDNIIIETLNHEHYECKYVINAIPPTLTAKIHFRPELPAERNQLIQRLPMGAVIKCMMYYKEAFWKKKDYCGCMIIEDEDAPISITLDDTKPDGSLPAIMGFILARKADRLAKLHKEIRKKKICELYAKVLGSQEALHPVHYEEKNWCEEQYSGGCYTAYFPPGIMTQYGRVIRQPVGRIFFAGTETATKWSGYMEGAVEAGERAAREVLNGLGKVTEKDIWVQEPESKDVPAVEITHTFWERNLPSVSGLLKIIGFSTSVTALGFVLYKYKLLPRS
Protocol: The reaction mixture was prepared as described below. The co-dosed TAs were added into the reaction mixture at a final concentration of 1 microM each. The positive control, kynuramine (25 microM), was run simultaneously with the TAs in a separate reaction. The reaction mixture (without TAs or kynuramine) was equilibrated in a shaking water bath at 37° C. for 5 minutes. The reaction was initiated by the addition of the TAs or kynuramine, and the mixture was incubated in a shaking water bath at 37° C. Aliquots (100 microL) of the TA reaction mixture were withdrawn at 0, 5, 10, 20, 30, 60, and 120 minutes. Aliquots (100 microL) of the positive control reaction mixture were withdrawn at 0 and 30 minutes. TA and kynuramine samples were immediately combined with 100 microL of ice-cold 100% MeCN containing 0.1% formic acid and IS to terminate the reaction. The samples were then mixed and centrifuged to precipitate proteins. All TA samples were assayed by LC-HRAMS. The PARR (analyte to IS) at each time point was compared to the PARR at time 0 to determine the percent remaining at each time point. Reaction composition: hrMAO 0.02 mg/mL; Potassium Phosphate, pH 7.4 100 mM; Magnesium Chloride 5 mM; Test Articles (each) 1 microM.

[3] = PK studies in rats (cassette dosing, oral gavage or catheter; brain and plasma levels); format: in vivo, Wistar female rats; settings: % change vs. non-deuterated material; for Deuterium Kinetic Isotope Effect (% change) AUC / Deuterium Kinetic Isotope Effect (% change) T1/2: 5 mg/kg; for Deuterium Kinetic Isotope Effect (% change) BPR, 15 min: sacrificed at 15 min; for Deuterium Kinetic Isotope Effect (% change) BPR, 15 min / Deuterium Kinetic Isotope Effect (% change) BPR, 30 min: parent drug in brain and plasma; for Deuterium Kinetic Isotope Effect (% change) BPR, 30 min: sacrificed at 30 min
Protocol: The key PK parameters (presented as a % change vs. non-deuterated materials) are presented in Table 3 to include half-life (T1/2), area under the curve (AUC), bioavailability (F) and blood-to-plasma ration (BPR). Pharmacokinetics of the deuterated tryptamines was studied in rats. In a typical experiment, run as a cassette dosing, two groups of 5 Wistar female rats (200-250 g) with surgically inserted jugular vein catheter (Charles River, Andover, MA) were fasted for 12 h and then administered 5 mg/kg of the deuterated and 5 mg/kg of the related non-deuterated analog, by oral gavage or via a catheter for each group. At time points 0, 15, 30, 60 min, and 2, 4, 8, and 24 h, the resulting plasma was analyzed for the parent molecule using LC/MS spectroscopy. Two separate groups of 5 animals were used for determining blood-to-plasma ratio (BPR). Each group was sacrificed at time points 15 and 30 min, respectively, and the concentration of the parent drug was determined in the brain and plasma by LC/MS spectroscopy.

[4] = Table 5, d8 and d10 analogs, hrMAO-A

## CCNCCc1c[nH]c2cccc(O)c12
[1]
  RLM, %, class symbol (metabolized or not): R

## CCN(CC)CCc1c[nH]c2ccc(OC)cc12
[1]
  RLM, %, class symbol (metabolized or not): R

## COc1cccc2[nH]cc(CCN(C)C)c12 [reference compound]
[2]
  MAO, %, class symbol (metabolized or not): R
[1]
  RLM, %, class symbol (metabolized or not): R

## [2H]C([2H])([2H])N(C([2H])([2H])[2H])C([2H])([2H])C([2H])([2H])c1c[nH]c2ccccc12 [DMT-d10]
[2]; MAO-A enzymatic assay
  metabolic stability in the MAO-A enzymatic assay, in words: superiority
[2]; Table 3, hrMAO-A
  Half-life: > 2 h
  % Remaining of Initial 0 min: 100%
[2]; [4]
  Half-life: > 2 h
  % Remaining of Initial 0 min: 100.0%
[2]; Table 5, d8 and d10 analogs, hrMAO-A, 5 min
  % Remaining of Initial 5 min: 99.0%
[1]; Table 2, RLM
  % Remaining of Initial 0 min: 100%
[1]; Table 4, d8 and d10 analogs, RLM
  % Remaining of Initial 0 min: 100%
[1]; Table 4, d8 and d10 analogs, RLM, 10 min
  % Remaining of Initial 10 min: 56.0%
[1]; rat liver microsomes, vs. DMT
  kinetic deuterium isotope effect / metabolic stability, in words: Further enhancement of metabolic stability

## [2H]C([2H])(Cc1c[nH]c2ccccc12)NC([2H])([2H])C([2H])([2H])[2H]
[2]
  MAO, % (half-life as % vs. the related nondeuterated compound): 170%

## [2H]C([2H])(NC)C([2H])([2H])c1c[nH]c2cccc(O)c12
[1]
  RLM, % (half-life as % vs. the related nondeuterated compound): 160%

## [2H]C([2H])(Cc1c[nH]c2ccccc12)N(C)C [DMT-d2]
[2]; Table 3, hrMAO-A
  Half-life: > 2 h
  % Remaining of Initial 0 min: 100%
[2]; Table 3, hrMAO-A, 60 min
  % Remaining of Initial 60 min: 76.0%
[1]; Table 2, RLM
  % Remaining of Initial 0 min: 100%
[1]; Table 2, RLM, 60 min
  % Remaining of Initial 60 min: 32.0%

## [2H]c1ccc2[nH]c([2H])c(CCN([2H])CC)c2c1O
[1]
  RLM, %, class symbol (metabolized or not): R

## CN(C)CCc1c[nH]c2ccccc12 [DMT]
[2]; Table 3, hrMAO-A
  % Remaining of Initial 0 min: 100%
[1]; Table 2, RLM
  % Remaining of Initial 0 min: 100%
[1]; Table 2, RLM, 20 min
  % Remaining of Initial 20 min: 41.0%

## CCN(CC)CCc1c[nH]c2cccc(OC)c12
[1]
  RLM, %, class symbol (metabolized or not): R

## CC(C)N(CCc1c[nH]c2cccc(O)c12)C(C)C
[1]
  RLM, %, class symbol (metabolized or not): R

## CC(C)NCCc1c[nH]c2cccc(O)c12
[1]
  RLM, %, class symbol (metabolized or not): R

## [2H]C([2H])(c1c[nH]c2cccc(OC)c12)C([2H])([2H])N(C)C
[1]
  RLM, % (half-life as % vs. the related nondeuterated compound): 190%

## [2H]C([2H])(c1c[nH]c2ccccc12)C([2H])([2H])N(C)C [DMT-d4]
[2]; Table 3, hrMAO-A
  Half-life: > 2 h
  % Remaining of Initial 0 min: 100%
[1]; Table 2, RLM
  % Remaining of Initial 0 min: 100%

## [2H]C([2H])(Cc1c[nH]c2cccc(O)c12)N(C)C [PI-α,α-d2]
[3]
  Deuterium Kinetic Isotope Effect (% change) AUC: 75 % change
  Deuterium Kinetic Isotope Effect (% change) T1/2: 50 % change
  Deuterium Kinetic Isotope Effect (% change) BPR, 15 min: 100 % change
  Deuterium Kinetic Isotope Effect (% change) BPR, 30 min: 150 % change

## [2H]C([2H])(NCC)C([2H])([2H])c1c[nH]c2cccc(O)c12
[1]
  RLM, % (half-life as % vs. the related nondeuterated compound): [94] %

## [2H]C([2H])(Cc1c[nH]c2ccc(OC)cc12)N(C)C [5-MeO-DMT-α,α-d2]
[3]
  Deuterium Kinetic Isotope Effect (% change) AUC: 60 % change
  Deuterium Kinetic Isotope Effect (% change) T1/2: 30 % change
  Deuterium Kinetic Isotope Effect (% change) BPR, 15 min: 120 % change
  Deuterium Kinetic Isotope Effect (% change) BPR, 30 min: 180 % change

## CCN(C)CCc1c[nH]c2cccc(OC)c12 [reference compound]
[2]
  MAO, %, class symbol (metabolized or not): R
[1]
  RLM, %, class symbol (metabolized or not): R

## CNCCc1c[nH]c2cccc(O)c12 [reference compound]
[2]
  MAO, %, class symbol (metabolized or not): R
[1]
  RLM, %, class symbol (metabolized or not): R

## CCNCCc1c[nH]c2ccccc12 [reference compound]
[2]
  MAO, %, class symbol (metabolized or not): R
[1]
  RLM, %, class symbol (metabolized or not): R

## C=CCNCCc1c[nH]c2ccccc12
[1]
  RLM, %, class symbol (metabolized or not): R

## [2H]C([2H])(c1c[nH]c2cccc(O)c12)C([2H])([2H])N(C(C)C)C(C)C
[1]
  RLM, % (half-life as % vs. the related nondeuterated compound): [97] %

## CN(C)CCc1c[nH]c2ccc(O)cc12 [reference compound]
[2]
  MAO, %, class symbol (metabolized or not): R
[1]
  RLM, %, class symbol (metabolized or not): R

## CNCCc1c[nH]c2ccccc12 [reference compound]
[2]
  MAO, %, class symbol (metabolized or not): R
[1]
  RLM, %, class symbol (metabolized or not): R

## C=CCN(CC=C)CCc1c[nH]c2ccccc12
[1]
  RLM, %, class symbol (metabolized or not): R

## CCN(C)CCc1c[nH]c2ccc(OC)cc12 [reference compound]
[2]
  MAO, %, class symbol (metabolized or not): R
[1]
  RLM, %, class symbol (metabolized or not): R

## COc1ccc2[nH]cc(CCN(C)C)c2c1 [5-MeO-DMT, reference compound]
[2]
  MAO, %, class symbol (metabolized or not): R
[1]
  RLM, %, class symbol (metabolized or not): R

## CCN(CC)CCc1c[nH]c2ccc(O)cc12
[1]
  RLM, %, class symbol (metabolized or not): R

## CCN(C)CCc1c[nH]c2ccccc12 [reference compound]
[2]
  MAO, %, class symbol (metabolized or not): R
[1]
  RLM, %, class symbol (metabolized or not): R

## [2H]C([2H])(NCC)C([2H])([2H])c1c[nH]c2ccccc12
[2]
  MAO, % (half-life as % vs. the related nondeuterated compound): 140%

## CC(C)NCCc1c[nH]c2ccccc12
[1]
  RLM, %, class symbol (metabolized or not): R

## [2H]C([2H])(c1c[nH]c2ccc(OC)cc12)C([2H])([2H])N(CC)CC
[1]
  RLM, % (half-life as % vs. the related nondeuterated compound): [95] %

## [2H]C([2H])([2H])C([2H])([2H])NC([2H])([2H])C([2H])([2H])c1c[nH]c2cccc(O)c12
[1]
  RLM, % (half-life as % vs. the related nondeuterated compound): [93] %

## CCN(C)CCc1c[nH]c2ccc(O)cc12 [reference compound]
[2]
  MAO, %, class symbol (metabolized or not): R
[1]
  RLM, %, class symbol (metabolized or not): R

## CCN(CC)CCc1c[nH]c2ccccc12
[1]
  RLM, %, class symbol (metabolized or not): R
